Assay results published in US6806230B1, “Pyrimidine derivatives and herbicides containing them” (Kumiai Chemical Industry Co., Ltd., priority 1999, dated 2004).

Tests used:
Assay type in all cases: in vivo
[1] = tested on: monochoria (Mo); test: Test Example 1: herbicidal effects by flooded paddy field treatment; parameters: herbicidal effects, Mo (monochoria):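 0-5 growth inhibition grade; 5 = over 90%; 4 = 70-90%; 3 = 50-70%; 2 = 30-50%; 1 = 10-30%; 0 = under 10%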; settings: for herbicidal effects, Mo (monochoria): dose 100 g active ingredient per 10 ares, examined on the 21st day after treatment, standards of Table 44; for Herbicidal effect index, Mo: dose 100 gai/10a, examined on 21st day after treatment, index 0-5 per Table 44;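 for Herbicidal effect index, Mo: 0-5 growth inhibition grade; 5 = over 90%; 4 = 70-90%; 3 = 50-70%; 2 = 30-50%; 1 = 10-30%; 0 = under 10%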
How it was run: (§1)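 Pots hold puddled paddy soil; seeds are sown and the pots flooded 3 cm deep. Next day, diluted wettable powder goes dropwise onto the water at a dose of 100 g active ingredient per 10 ares, and herbicidal effects are rated after 21 days in a greenhouse.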

[2] = tested on: green foxtail (Se); test: Test Example 2: herbicidal effects by upland soil treatment; settings: dose 100 g active ingredient per 10 ares, examined on the 21st day after treatment, standards of Table 44;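 note: 0-5 growth inhibition grade; 5 = over 90%; 4 = 70-90%; 3 = 50-70%; 2 = 30-50%; 1 = 10-30%; 0 = under 10%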
How it was run: (§2)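 Pre-emergence test: barnyard grass and green foxtail sown in upland soil, then soil surface sprayed with wettable-powder formulation at 100 g active ingredient per 10 ares (100 l per 10 ares). Grown in greenhouse; herbicidal effect scored on a rating scale 21 days after treatment.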

[3] = tested on: barnyard grass (Eo); test: Test Example 1: herbicidal effects by flooded paddy field treatment; parameters: herbicidal effects, Eo (barnyard grass):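 0-5 growth inhibition grade; 5 = over 90%; 4 = 70-90%; 3 = 50-70%; 2 = 30-50%; 1 = 10-30%; 0 = under 10%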; settings: for herbicidal effects, Eo (barnyard grass): dose 100 g active ingredient per 10 ares, examined on the 21st day after treatment, standards of Table 44; for Herbicidal effect index, Eo: dose 100 gai/10a, examined on 21st day after treatment, index 0-5 per Table 44;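 for Herbicidal effect index, Eo: 0-5 growth inhibition grade; 5 = over 90%; 4 = 70-90%; 3 = 50-70%; 2 = 30-50%; 1 = 10-30%; 0 = under 10%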
How it was run: as §1

[4] = tested on: barnyard grass (Ec); test: Test Example 2: herbicidal effects by upland soil treatment; parameters: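 0-5 growth inhibition grade; 5 = over 90%; 4 = 70-90%; 3 = 50-70%; 2 = 30-50%; 1 = 10-30%; 0 = under 10%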; settings: dose 100 g active ingredient per 10 ares, examined on the 21st day after treatment, standards of Table 44
How it was run: as §2

[5] = tested on: barnyard grass (Eo); test: Test Example 4: selectivity for a crop plant by flooded paddy field treatment; parameters: scale not given here; settings: for Eo (herbicidal effect index): barnyard grass, dose 25 gai/10a, 21st day after treatment, index per Table 44; for Eo (herbicidal effects, index): dose 25 g active ingredient per 10 ares, examined on the 21st day after treatment
How it was run: (§3)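 Rice at the second-leaf stage is transplanted into puddled, 3 cm-flooded paddy soil alongside sown weed seeds, and a diluted wettable powder is dripped onto the water surface the following day at 25 g a.i./10 ares. Effects are rated 21 days later.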

[6] = tested on: monochoria (Mo); test: as above; parameters: scale not given here; settings: for Mo (herbicidal effect index): monochoria, dose 25 gai/10a, 21st day after treatment, index per Table 44; for Mo (herbicidal effects, index): dose 25 g active ingredient per 10 ares, examined on the 21st day after treatment
How it was run: as §3

[7] = tested on: rice (Or); test: as above; parameters: scale not given here; settings: rice transplanted at second leaf stage; for Or (herbicidal effect index on crop): dose 25 gai/10a, 21st day after treatment, index per Table 44; for Or (effect on crop plant rice, index): dose 25 g active ingredient per 10 ares, examined on the 21st day after treatment
How it was run: as §3

[8] = tested on: barnyard grass (Ec); test: Test Example 3: herbicidal effects by foliage treatment in upland field; parameters: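 0-5 growth inhibition grade; 5 = over 90%; 4 = 70-90%; 3 = 50-70%; 2 = 30-50%; 1 = 10-30%; 0 = under 10%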; settings: dose 100 g active ingredient per 10 ares, examined on the 14th day after treatment
How it was run: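 Barnyard grass and green foxtail were grown in upland soil for 2 weeks in a greenhouse. A water-diluted wettable powder was sprayed over the foliage at 100 l per 10 ares, giving 100 g active ingredient per 10 ares. Herbicidal effect was scored on day 14 after treatment.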

SMILES	herbicidal effects, Mo (monochoria) [1]	herbicidal effects, Se (green foxtail) [2]	herbicidal effects, Eo (barnyard grass) [3]	herbicidal effects, Ec (barnyard grass) [4]	Eo (herbicidal effect index) [5]	Mo (herbicidal effect index) [6]	Or (herbicidal effect index on crop) [7]	Ec (herbicidal effects, index) [8]	Herbicidal effect index, Mo [1]	Herbicidal effect index, Eo [3]	Eo (herbicidal effects, index) [5]	Mo (herbicidal effects, index) [6]	Or (effect on crop plant rice, index) [7]
CN(C(=O)Cc1ccc(F)cc1)C(c1ccc(F)cc1)c1cncnc1C(F)(F)F (racemic) [1-218]	5	5	5	5	5	5	1	4					
Cc1ccc(CC(=O)N(C)C(c2ccc(F)cc2)c2cncnc2C(F)(F)F)cc1 (racemic) [1-220]	5	5	5	5	5	5	1	5					
CCOc1ccc(CC(=O)N(C)C(c2cncnc2C(F)(F)F)C(C)C)cc1 (racemic) [Compound 1-13]		5		5				5	5	5	5	5	1
CC(C)C(c1cncnc1C(F)(F)F)N(C)C(=O)Cc1cccc(Cl)c1 (racemic) [Compound 1-21]		5		5				4	5	5	5	5	1
CC(C)C(c1cncnc1C(F)(F)F)N(C)C(=O)Cc1ccc(Cl)cc1 (racemic) [Compound 1-22]		5		5				4	5	5	5	5	1
CCN(C(=O)Cc1ccccc1)C(c1cncnc1C(F)(F)F)C(C)C (racemic) [Compound 1-26]		5		5				4	5	5	5	5	1
CC(C)C(c1cncnc1C(F)(F)F)N(C)C(=O)Cc1ccc(Br)cc1 (racemic) [Compound 1-41]		5		5				5	5	5	5	5	0
COc1cc(CC(=O)N(C)C(c2cncnc2C(F)(F)F)C(C)C)ccc1Cl (racemic) [Compound 1-47]		5		5				4	5	5	5	5	0
Cc1ncncc1C(C(C)C)N(C)C(=O)Cc1ccccc1 (racemic) [Compound 1-87]		5		5				4	5	5	5	5	1
Cc1ncncc1C(C(C)C)N(C)C(=O)Cc1ccc(F)cc1 (racemic) [Compound 1-88]		5		5				4	5	5			
CC(C)C(c1cncnc1C(F)(F)F)N(C)C(=O)Cc1ccc(OC(F)F)cc1 (racemic) [Compound 1-96]		5		5				5	5	5			
CCCC(c1cncnc1C(F)(F)F)N(C)C(=O)Cc1ccc(F)cc1 (racemic) [Compound 1-112]		5		5				4	5	5			
CCCC(c1cncnc1C(F)(F)F)N(C)C(=O)Cc1ccc(C)cc1 (racemic) [Compound 1-113]		4		5	5	5	0	4	5	5			
CC(C)C(c1cncnc1C(F)(F)F)N(C)C(=O)Cc1ccc(F)c(F)c1 (racemic) [Compound 1-122]		5		5				4	5	5			
CC(C)C(c1cncnc1C(F)(F)F)N(C)C(=O)COc1ccc(F)cc1 (racemic) [Compound 1-127]		5		5				4	5	5			
CC(C)C(c1cncnc1C(F)(F)F)N(C)C(=O)COc1cccc(Cl)c1 (racemic) [Compound 1-133]	5	5	5	5	5	5	1	5					
CN(C(=O)Cc1ccccc1)C(c1cncnc1C(F)(F)F)C1CCCC1 (racemic) [Compound 1-137]	5	5	5	5	5	5	1	5					
CC(C)C(c1cncnc1C(F)(F)F)N(C)C(=S)Cc1ccc(F)cc1 (racemic) [Compound 1-143]	5	5	5	5				4					
CC(C)C(c1cncnc1C(F)F)N(C)C(=O)Cc1ccc(F)cc1 (racemic) [Compound 1-164]	5	5	5	5				4					
